Assay results taken from patent US20260234147A1 (priority 2023, published 2026).
Read-outs that look alike come from different tables or passages of the source.

Assays:
hMOR [1] = target: T1, hMOR (Homo sapiens, UniProt P35372); assay: cell-based; set-up: expressed in transfected cells
hMOR [2] = target: T1, hMOR; assay: Radioligand binding assay (Eurofins Cerep), [3H]DAMGO displacement
hDOR = hDOR (Homo sapiens, UniProt P41143); assay: Radioligand binding assay (Eurofins Cerep), [3H]DADLE displacement; conditions: read-out: DOR Ki ± SEM
Sequence of hDOR (P41143 whole entry): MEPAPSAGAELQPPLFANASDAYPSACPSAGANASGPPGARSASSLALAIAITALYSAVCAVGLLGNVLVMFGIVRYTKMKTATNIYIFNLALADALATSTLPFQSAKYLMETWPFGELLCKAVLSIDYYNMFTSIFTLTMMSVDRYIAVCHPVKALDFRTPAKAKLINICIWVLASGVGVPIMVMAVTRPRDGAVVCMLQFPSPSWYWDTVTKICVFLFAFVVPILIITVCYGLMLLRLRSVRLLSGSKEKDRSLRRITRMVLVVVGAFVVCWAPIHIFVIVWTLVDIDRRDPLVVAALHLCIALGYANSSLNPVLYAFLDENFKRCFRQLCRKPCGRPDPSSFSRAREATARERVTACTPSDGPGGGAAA

hKOR = hKOR (Homo sapiens, UniProt P41145); assay: Radioligand binding assay (Eurofins Cerep), [3H]U69,593 displacement; conditions: read-out: KOR Ki ± SEM
Sequence of hKOR (P41145 whole entry): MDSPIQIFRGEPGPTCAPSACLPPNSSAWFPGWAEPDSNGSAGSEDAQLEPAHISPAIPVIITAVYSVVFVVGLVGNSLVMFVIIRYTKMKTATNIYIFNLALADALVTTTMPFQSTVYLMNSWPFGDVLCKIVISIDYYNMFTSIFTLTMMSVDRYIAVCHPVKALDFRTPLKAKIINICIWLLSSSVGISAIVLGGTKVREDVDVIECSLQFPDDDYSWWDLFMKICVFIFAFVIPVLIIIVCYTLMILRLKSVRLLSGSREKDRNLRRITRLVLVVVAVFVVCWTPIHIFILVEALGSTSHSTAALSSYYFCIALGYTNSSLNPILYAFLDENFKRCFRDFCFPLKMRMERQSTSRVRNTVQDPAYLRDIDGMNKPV

[3] = Metabolic stability in rat liver microsomes; type: in vitro ADME; conditions: for Whole liver clearance, CL int, H: in vitro intrinsic clearance in RLM scaled to whole organ (rat); for RLM stability: rat liver microsomes 1 mg/ml, substrate 1 μM, NADPH, 37° C.
Experimental: In vitro metabolic stability of each compound was determined using rat liver microsomes in triplicate. Verapamil was used as a positive control to check the activity of the microsomes. The incubation mixtures consisted of rat liver microsomes (1 mg microsomal protein/ml), substrate (1 μM), and reduced NADPH (1 mM) in a total volume of 0.4 ml potassium phosphate buffer (50 mM, pH 7.4). Reactions were initiated with the addition of NADPH and kept in an incubator shaker at 37° C. Aliquots of 25 μl were withdrawn at 0, 5, 10, 15, 30, and 60 min and mixed with 125 μl of acetonitrile with formic acid (0.1% v/v) containing phenacetin (50 ng/ml; internal standard) for the termination of the reaction. The samples were then vortex mixed and filtered through a […] 96-well membrane filtration plate under centrifugation at speed of 2000×g for 5 min at 4° C. The filtrates were subjected to UPLC-mass spectrometry (MS/MS) analysis.
The intrinsic clearance of the compounds was calculated using a half-life employing the ‘substrate depletion’ approach. The apparent half-life was calculated from the pseudo-first-order rate constants obtained by linear regression of log (concentration) and time plots. The in vitro intrinsic clearance of IFN was estimated using the formula: […]
Where k is the slope of the line obtained by plotting the natural logarithmic of the percentage of parent remaining versus time and V is the volume of incubation.
The in vitro intrinsic clearance was scaled to whole-organ (hepatic) in vivo intrinsic CL (CLint,H) using the scaling factors available in the literature using equation (Mahmood I. Application of allometric principles for the prediction of pharmacokinetics in human and veterinary drug development. Advanced drug delivery reviews, 2007, 59(11), 1177-1192)
MPPGL represents the microsomal protein per gram of Sprague Dawley rat liver (45 mg/g) and liver weight per kg body weight was 40 g/kg.

α2A adrenergic receptor = target: T2, α2A adrenergic receptor (Homo sapiens, UniProt P08913); assay: Radioligand binding assay (Eurofins Cerep), [3H]RX 821002 displacement; conditions: read-out: Alpha2A Ki ± SEM
T2 construct: Eurofins Cerep (contract screening)
T2 sequence (P08913 1-465): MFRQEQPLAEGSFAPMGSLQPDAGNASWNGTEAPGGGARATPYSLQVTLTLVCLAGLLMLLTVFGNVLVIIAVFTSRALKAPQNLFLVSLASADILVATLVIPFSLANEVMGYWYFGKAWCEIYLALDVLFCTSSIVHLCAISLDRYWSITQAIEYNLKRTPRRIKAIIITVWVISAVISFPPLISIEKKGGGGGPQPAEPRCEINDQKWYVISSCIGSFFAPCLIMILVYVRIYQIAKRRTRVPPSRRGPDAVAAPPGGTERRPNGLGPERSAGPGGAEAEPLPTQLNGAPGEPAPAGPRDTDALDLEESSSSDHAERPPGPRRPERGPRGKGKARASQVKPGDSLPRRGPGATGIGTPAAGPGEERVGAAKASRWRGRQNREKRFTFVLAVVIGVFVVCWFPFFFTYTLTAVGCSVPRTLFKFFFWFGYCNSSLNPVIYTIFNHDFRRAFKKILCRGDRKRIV

[4] = Table A1, data summary #1, read-out: MOR Ki ± SEM
[5] = Table A4, data summary #2, read-out: MOR Ki ± SEM

T1 sequence (P35372 whole entry): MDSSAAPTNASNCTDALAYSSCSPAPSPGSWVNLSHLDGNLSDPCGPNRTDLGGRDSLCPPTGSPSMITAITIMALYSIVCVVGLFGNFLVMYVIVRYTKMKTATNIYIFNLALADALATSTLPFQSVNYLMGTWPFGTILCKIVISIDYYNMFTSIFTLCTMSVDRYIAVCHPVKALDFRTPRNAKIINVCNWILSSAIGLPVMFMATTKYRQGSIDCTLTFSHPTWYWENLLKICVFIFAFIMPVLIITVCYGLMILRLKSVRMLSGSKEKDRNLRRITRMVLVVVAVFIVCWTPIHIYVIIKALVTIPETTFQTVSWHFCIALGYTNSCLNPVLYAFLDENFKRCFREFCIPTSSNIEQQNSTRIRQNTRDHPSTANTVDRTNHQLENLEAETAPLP

Row | Structure (SMILES) | Emax (hMOR [1]; CHO, read-out: MOR Emax ± SEM (%)) | Ki (hMOR [2]; [4]) | Ki (hDOR; Table A1, data summary #1) | Ki (hKOR; Table A1, data summary #1) | MOR Emax ± SEM (% DAMGO) (hMOR [1]; Table A1, data summary #1) | Whole liver clearance, CL int, H [3] | RLM stability [3] | Ki (hMOR [2]; [5]) | Ki (α2A adrenergic receptor; Table A1, data summary #1) | Ki (α2A adrenergic receptor; Table A4, data summary #2) | Ki (hDOR; Table A4, data summary #2) | Ki (hKOR; Table A4, data summary #2) | Ki (hMOR [2]; read-out: Ki at hMOR)
1 | C[C@@H](NC(=O)[C@@H](N)Cc1ccc(O)cc1)C(=O)NCC(=O)N(C)[C@@H](Cc1ccccc1)C(=O)NCCO [DAMGO, reference compound] | 106 ± 2% | – | – | – | – | – | – | – | – | – | – | – | –
2 | CC[C@@H]1CN2CC[C@]3(Nc4cccc(OC)c4C3=O)[C@@H]2C[C@@H]1/C(=C\OC)C(=O)OC [Mitragynine pseudoindoxyl, reference compound] | – | 0.0013 µM | 0.00293 µM | 0.15 µM | 42.4 % DAMGO | – | – | – | – | – | – | – | –
3 | CC[C@@H]1CN2CCc3c([nH]c4cccc(OC)c34)[C@@H]2C[C@@H]1/C(=C\OC)C(=O)NC [SUSM-25, (E)-2-((2S,3S,12bS)-3-ethyl-8-methoxy-1,2,3,4,6,7,12,12b-octahydroindolo[2,3-a]quinolizin-2-yl)-3-methoxy-N-methylacrylamide] | – | 4.02 ± 0.728 µM | > 10 µM | > 10 µM | – | 8.9 mL/min/kg | >60 min | 3.52 ± 0.763 µM | 7.04 ± 1.82 µM | 6.74 ± 1.91 µM | > 10 µM | > 10 µM | –
4 | CCCNC(=O)/C(=C/OC)[C@H]1C[C@H]2c3[nH]c4cccc(OC)c4c3CCN2C[C@H]1CC [SUSM-27, (E)-2-((2S,3S,12bS)-3-ethyl-8-methoxy-1,2,3,4,6,7,12,12b-octahydroindolo[2,3-a]quinolizin-2-yl)-3-methoxy-N-propylacrylamide] | – | 4.56 ± 0.692 µM | > 10 µM | > 10 µM | – | 20.8 mL/min/kg | >60 min | 4.56 ± 0.692 µM | 2.73 ± 1.26 µM | 6.45 ± 2.59 µM | > 10 µM | > 10 µM | –
5 | CCNC(=O)/C(=C/OC)[C@H]1C[C@H]2c3[nH]c4cccc(OC)c4c3CCN2C[C@H]1CC [SUSM-32, (E)-N-ethyl-2-((2S,3S,12bS)-3-ethyl-8-methoxy-1,2,3,4,6,7,12,12b-octahydroindolo[2,3-a]quinolizin-2-yl)-3-methoxyacrylamide] | – | 4.22 ± 0.752 µM | > 10 µM | > 10 µM | – | 11.4 mL/min/kg | >60 min | 4.22 ± 0.752 µM | 4.29 ± 1.12 µM | 3.87 ± 0.984 µM | > 10 µM | > 10 µM | –
6 | CC[C@@H]1CN2CCc3c([nH]c4cccc(OC)c34)[C@@H]2C[C@@H]1/C(=C\OC)C(=O)NC1CCCC1 [SUSM-506, (E)-N-cyclopentyl-2-((2S,3S,12bS)-3-ethyl-8-methoxy-1,2,3,4,6,7,12,12b-octahydroindolo[2,3-a]quinolizin-2-yl)-3-methoxyacrylamide] | – | 1.38 ± 0.176 µM | > 10 µM | 5.85 ± 0.657 µM | – | 36.4 mL/min/kg | 30 min | 1.38 ± 0.176 µM | 8.97 ± 0.572 µM | 5.75 ± 0.568 µM | > 10 µM | 5.85 ± 0.657 µM | –
7 | CC[C@@H]1CN2CCc3c([nH]c4cccc(OC)c34)[C@@H]2C[C@@H]1/C(=C\OC)C(=O)N1CCCC1 [SUSM-507, (E)-2-((2S,3S,12bS)-3-ethyl-8-methoxy-1,2,3,4,6,7,12,12b-octahydroindolo[2,3-a]quinolizin-2-yl)-3-methoxy-1-(pyrrolidin-1-yl)prop-2-en-1-one] | – | 0.655 ± 0.0766 µM | > 10 µM | > 10 µM | – | 833.8 mL/min/kg | <5 min | 0.655 ± 0.0766 µM | 9.85 ± 1.57 µM | 4.99 ± 1.02 µM | 6.26 ± 3.17 µM | > 10 µM | –
8 | CC[C@@H]1CN2CCc3c([nH]c4cccc(OC)c34)[C@@H]2C[C@@H]1/C(=C\OC)C(=O)N(CC)CC [SUSM-509, (E)-N,N-diethyl-2-((2S,3S,12bS)-3-ethyl-8-methoxy-1,2,3,4,6,7,12,12b-octahydroindolo[2,3-a]quinolizin-2-yl)-3-methoxyacrylamide] | – | 1.13 ± 0.0738 µM | > 10 µM | > 10 µM | – | – | <5 min | 1.13 ± 0.0738 µM | 5.2 ± 0.621 µM | 2.73 ± 0.488 µM | > 10 µM | > 10 µM | –
9 | CC[C@@H]1CN2CCc3c([nH]c4cccc(OC)c34)[C@@H]2C[C@@H]1/C(=C\OC)C(=O)N1CCCCC1 [SUSM-518, (E)-2-((2S,3S,12bS)-3-ethyl-8-methoxy-1,2,3,4,6,7,12,12b-octahydroindolo[2,3-OMea]quinolizin-2-yl)-3-methoxy-1-(piperidin-1-yl)prop-2-en-1-one] | – | – | > 10 µM | 7.46 ± 1.42 µM | – | – | <5 min | 0.244 ± 0.055 µM | – | 0.523 ± 0.155 µM | > 10 µM | 7.46 ± 1.42 µM | 0.129 µM
10 | CC[C@@H]1CN2CCc3c([nH]c4cccc(OC)c34)[C@@H]2C[C@@H]1/C(=C\OC)C(=O)NC1CCCCC1 [SUSM-519, (E)-N-cyclohexyl-2-((2S,3S,12bS)-3-ethyl-8-methoxy-1,2,3,4,6,7,12,12b-octahydroindolo[2,3-a]quinolizin-2-yl)-3-methoxyacrylamide] | – | 3.59 ± 0.663 µM | > 10 µM | 2.79 ± 0.64 µM | – | 38.4 mL/min/kg | 30 min | 2.18 ± 0.603 µM | – | 0.933 ± 0.242 µM | > 10 µM | 2.79 ± 0.64 µM | –
11 | CC[C@@H]1CN2CCc3c([nH]c4cccc(OC)c34)[C@@H]2C[C@@H]1/C(=C\OC)C(=O)N(C)CC [SUSM-520, (E)-N-ethyl-2-((2S,3S,12bS)-3-ethyl-8-methoxy-1,2,3,4,6,7,12,12b-octahydroindolo[2,3-a]quinolizin-2-yl)-3-methoxy-N-methylacrylamide] | – | 0.459 ± 0.0407 µM | > 10 µM | 4.78 ± 1.14 µM | – | 879.7 mL/min/kg | <5 min | 0.452 ± 0.033 µM | – | 0.938 ± 0.223 µM | > 10 µM | 4.78 ± 1.14 µM | –
12 | CCCN(C)C(=O)/C(=C/OC)[C@H]1C[C@H]2c3[nH]c4cccc(OC)c4c3CCN2C[C@H]1CC [SUSM-521, (E)-2-((2S,3S,12bS)-3-ethyl-8-methoxy-1,2,3,4,6,7,12,12b-octahydroindolo[2,3-a]quinolizin-2-yl)-3-methoxy-N-methyl-N-propylacrylamide] | – | – | 5.89 ± 0.105 µM | 2.61 ± 0.588 µM | – | – | <5 min | 0.222 ± 0.033 µM | – | 1.51 ± 0.676 µM | 4.03 ± 0.797 µM | 2.61 ± 0.588 µM | 0.167 µM
